The values that follow come from ChEMBL document CHEMBL1201862, “PubChem BioAssay data set” (2004).

Among the test systems are SNB-75; HOP-62; RXF 393; TK-10; NCI-H23; HCT-116; SR; CCRF-CEM; OVCAR-3; HCT-15; Malme-3M; NCI/ADR-RES; SK-MEL-5; SW-620; U-251; OVCAR-4; SK-MEL-2; NCI-H522; HOP-92.
Common to all, as to assay: NCI-60 cell line screen, 48 h

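All cell lines were grown in 96-well plates and treated with compound for 48 hours. GI50 is the concentration that inhibits growth by half.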 Active and inactive are the calls of the source. Cut-off read from the data, not from the text of the source: active = GI50 up to about 1.1 µM and inactive = higher. Bounds are passed on as bounds.

With `COC(=O)c1csc(-c2nc(CCNC(=O)OC(C)(C)C)sc2Br)n1`, the GI50 in the assay on SNB-75, in the assay with HOP-62, with RXF 393, with TK-10, with NCI-H23 and in the assay with HCT-116 was > 100 µM (inactive) in each case. In addition, the GI50 is 81.8 µM (inactive) with SR; > 100 µM (inactive) in the assay on CCRF-CEM; > 100 µM (inactive) with OVCAR-3; above 100 µM in the assay on HCT-15; > 100 µM (inactive) with Malme-3M; > 100 µM (inactive) in the assay with NCI/ADR-RES. For the same molecule, the GI50 with SK-MEL-5, with SW-620 and with U-251 was > 100 µM (inactive) throughout.
As to `CC1(C)Oc2ccc(Cl)cc2C12CC2`, the GI50 in the assay on SNB-75 is 16.8 µM (inactive); in the assay with HOP-62, 18.2 µM (inactive); in the assay on RXF 393, 15.6 µM (inactive); in the assay on TK-10, 18.4 µM (inactive); in the assay with NCI-H23, 20.1 µM (inactive); with OVCAR-4, 13.8 µM (inactive). Besides, the GI50 is 14.7 µM (inactive) in the assay with HCT-116; 18.1 µM (inactive) in the assay on SR; 22.7 µM (inactive) in the assay with CCRF-CEM; 16 µM (inactive) with SK-MEL-2; 13.8 µM (inactive) in the assay with OVCAR-3; 17.1 µM in the assay on HCT-15. Also, the GI50 in the assay on Malme-3M is 23.4 µM (inactive); with NCI/ADR-RES it was 18.4 µM (inactive); in the assay on SK-MEL-5, 18 µM (inactive); with SW-620 it was 11.8 µM (inactive); in the assay with U-251, 15.3 µM (inactive).
In the case of `Cc1ccc(/C=c2\c(=O)[nH]c3nc4ccccc4c(=O)n23)cc1`, the GI50 with NCI-H522 was 29 µM (inactive); in the assay with HOP-92, 55.2 µM (inactive); in the assay with SNB-75 it was 28.6 µM (inactive); in the assay with HOP-62, > 100 µM (inactive); with RXF 393, 29.6 µM (inactive); in the assay on TK-10 it was > 100 µM (inactive). The GI50 in the assay on NCI-H23 was 34.4 µM (inactive); in the assay on OVCAR-4, > 100 µM (inactive); with HCT-116, 28.5 µM (inactive); in the assay with CCRF-CEM, 30.7 µM (inactive); with SK-MEL-2, 62.2 µM (inactive); in the assay on OVCAR-3 it was 32.8 µM (inactive). For the same molecule, the GI50 in the assay with HCT-15 is 34.8 µM; with Malme-3M, 45.5 µM (inactive); in the assay on NCI/ADR-RES, 39.4 µM (inactive); with SW-620, 21.8 µM (inactive); in the assay on U-251, 19.9 µM (inactive).
`CCCCn1cc(C(=O)O)c(=O)c2c3sccc3ccc21`: the GI50 with NCI-H522 was > 100 µM (inactive); in the assay on HOP-92, > 100 µM (inactive); in the assay with SNB-75, 25.8 µM (inactive); in the assay on HOP-62 it was > 100 µM (inactive); in the assay with RXF 393, > 100 µM (inactive); with TK-10 it was > 100 µM (inactive). Further, the GI50 in the assay with NCI-H23, in the assay on OVCAR-4, with HCT-116, in the assay with CCRF-CEM, in the assay with SK-MEL-2 and with OVCAR-3 was > 100 µM (inactive) in each case. The GI50 with HCT-15 was 47 µM; with Malme-3M it was > 100 µM (inactive); in the assay with NCI/ADR-RES it was 19.9 µM (inactive); in the assay on SK-MEL-5 it was > 100 µM (inactive); in the assay on SW-620 it was > 100 µM (inactive); in the assay on U-251, 6.73 µM (inactive).
`O=[N+]([O-])/C=C/c1cccc(F)c1`: the GI50 in the assay with NCI-H522 is 12.3 µM (inactive); in the assay with HOP-92, 11.6 µM (inactive); with SNB-75, 13.7 µM (inactive); in the assay with HOP-62, 10.3 µM (inactive); in the assay on RXF 393 it was 2.02 µM (inactive); with TK-10, 3.82 µM (inactive). The GI50 in the assay on NCI-H23 is 3.48 µM (inactive); in the assay with OVCAR-4, 3.75 µM (inactive); with HCT-116, 0.603 µM (active); with CCRF-CEM, 2.22 µM (inactive); in the assay with SK-MEL-2 it was 12.4 µM (inactive); in the assay on OVCAR-3, 2.39 µM (inactive). Further, the GI50 with HCT-15 is 2.21 µM; in the assay on Malme-3M, 15.8 µM (inactive); in the assay with NCI/ADR-RES it was 13.1 µM (inactive); in the assay on SK-MEL-5, 4.5 µM (inactive); with SW-620, 2.58 µM (inactive); in the assay with U-251, 3.53 µM (inactive).
Take `COC(=O)C1=C(OC(=O)/C(=C/c2ccccc2)c2ccc([N+](=O)[O-])cc2)C(C(=O)OC)[C@@]2(O)[C@@H](C(=O)OC)[C@H](C)C[C@@H]1[C@@H]2C(=O)OC` (some centres not stated): the GI50 with NCI-H522 is 77.3 µM (inactive); in the assay on HOP-92, > 100 µM (inactive); in the assay on SNB-75, 72.9 µM (inactive); with HOP-62 it was > 100 µM (inactive); with RXF 393, 53 µM (inactive); with TK-10, > 100 µM (inactive). The GI50 in the assay with NCI-H23 was > 100 µM (inactive); in the assay with OVCAR-4 it was > 100 µM (inactive); in the assay with HCT-116, > 100 µM (inactive); in the assay with CCRF-CEM, 12.9 µM (inactive); in the assay on SK-MEL-2, > 100 µM (inactive); in the assay with OVCAR-3, > 100 µM (inactive). Further, the GI50 in the assay with HCT-15 was above 100 µM; in the assay with Malme-3M it was > 100 µM (inactive); in the assay with NCI/ADR-RES it was > 100 µM (inactive); in the assay on SK-MEL-5, > 100 µM (inactive); in the assay with SW-620, > 100 µM (inactive); with U-251, > 100 µM (inactive).
Consider `O=C1OC(C(O)CO)C(C(O)CO)OC1=O` (configuration not stated), for which the GI50 in the assay on HOP-62, with RXF 393, with TK-10, in the assay with NCI-H23, in the assay on OVCAR-4 and in the assay on SR was > 10 µM (inactive) in each case. Also, the GI50 in the assay on CCRF-CEM was > 10 µM (inactive); with OVCAR-3, > 10 µM (inactive); in the assay with HCT-15 it was above 10 µM; in the assay on Malme-3M, > 10 µM (inactive); in the assay with NCI/ADR-RES it was > 10 µM (inactive); in the assay with SK-MEL-5, > 10 µM (inactive). The GI50 in the assay with SW-620 and in the assay with U-251 was > 10 µM (inactive) in each case.
For `O=C(O)C(Cc1c[nH]c2ccccc12)N1C(=O)c2ccccc2C1=O` (configuration not stated), the GI50 in the assay with NCI-H522 is > 100 µM (inactive); in the assay with HOP-92, 0.785 µM (active); with SNB-75, > 100 µM (inactive); in the assay on HOP-62, > 100 µM (inactive); with RXF 393, > 100 µM (inactive); with TK-10, > 100 µM (inactive). Further, the GI50 was > 100 µM (inactive) in the assay with NCI-H23; > 100 µM (inactive) in the assay on OVCAR-4; > 100 µM (inactive) in the assay on HCT-116; > 100 µM (inactive) in the assay on SK-MEL-2; > 100 µM (inactive) in the assay on OVCAR-3; above 100 µM with HCT-15. In addition, the GI50 with Malme-3M, in the assay on NCI/ADR-RES, in the assay on SK-MEL-5, in the assay on SW-620 and with U-251 was > 100 µM (inactive) each time.
For the molecule `COc1cc(C(c2c(O)c3ccccc3oc2=O)c2c(O)c3ccccc3oc2=O)ccc1O`, the GI50 in the assay on NCI-H522 is 20.8 µM (inactive); with HOP-92, 14.6 µM (inactive); with SNB-75, 20.7 µM (inactive); in the assay on HOP-62, 44.4 µM (inactive); in the assay with RXF 393, 18 µM (inactive); in the assay with TK-10, 20.3 µM (inactive). For the same molecule, the GI50 in the assay on NCI-H23 is 39 µM (inactive); in the assay with OVCAR-4, 49.1 µM (inactive); with HCT-116, 34 µM (inactive); in the assay on CCRF-CEM it was 28.8 µM (inactive); with SK-MEL-2 it was 25.2 µM (inactive); with OVCAR-3 it was 19.5 µM (inactive). Further, the GI50 was 17.4 µM with HCT-15; 19 µM (inactive) in the assay on Malme-3M; 28.6 µM (inactive) in the assay with NCI/ADR-RES; 15.7 µM (inactive) with SK-MEL-5; 23.7 µM (inactive) in the assay with SW-620; 22.9 µM (inactive) with U-251.
